Experimental data as given in ChEMBL document CHEMBL1139267, “Discovery of a potent, selective and orally bioavailable 3,9-diazaspiro[5.5]undeca-2-one CCR5 antagonist” (Bioorg Med Chem Lett, 2009).

Key:
[1] = molecular target: C-C chemokine receptor type 5 (Homo sapiens, UniProt P51681); assay: Antagonist activity at CCR5 receptor by radiolabeled RANTES binding assay
[2] = tested on: Human immunodeficiency virus 1; assay: Antiviral activity against R5 tropic HIV1 BaL infected in human JC53-BL cells expressing CCR5 after 2 days by cell-cell fusion assay; format: functional, organism-based; conditions: Human immunodeficiency virus 1, BaL, JC53BL, 48 h
[3] = Metabolic stability in human liver microsomes assessed as clearance; format: ADME, Microsome
[4] = molecular target: T1, C-C chemokine receptor type 1 (Homo sapiens, UniProt P32246); assay: Inhibition of CCR1 receptor
T1 sequence (P32246 whole entry): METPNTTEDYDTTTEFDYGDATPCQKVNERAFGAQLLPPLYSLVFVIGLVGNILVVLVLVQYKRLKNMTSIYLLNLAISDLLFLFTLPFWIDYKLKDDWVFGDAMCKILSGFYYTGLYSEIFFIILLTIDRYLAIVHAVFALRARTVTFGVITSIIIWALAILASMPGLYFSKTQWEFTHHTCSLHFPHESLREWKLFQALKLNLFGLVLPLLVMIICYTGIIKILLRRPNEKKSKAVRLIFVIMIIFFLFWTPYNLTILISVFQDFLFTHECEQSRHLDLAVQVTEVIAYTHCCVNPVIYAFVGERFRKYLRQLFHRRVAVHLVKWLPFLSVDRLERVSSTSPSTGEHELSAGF

[5] = molecular target: C-C chemokine receptor type 2 (Homo sapiens, UniProt P41597); assay: Inhibition of CCR2 receptor
Chain of C-C chemokine receptor type 2 (P41597 whole entry): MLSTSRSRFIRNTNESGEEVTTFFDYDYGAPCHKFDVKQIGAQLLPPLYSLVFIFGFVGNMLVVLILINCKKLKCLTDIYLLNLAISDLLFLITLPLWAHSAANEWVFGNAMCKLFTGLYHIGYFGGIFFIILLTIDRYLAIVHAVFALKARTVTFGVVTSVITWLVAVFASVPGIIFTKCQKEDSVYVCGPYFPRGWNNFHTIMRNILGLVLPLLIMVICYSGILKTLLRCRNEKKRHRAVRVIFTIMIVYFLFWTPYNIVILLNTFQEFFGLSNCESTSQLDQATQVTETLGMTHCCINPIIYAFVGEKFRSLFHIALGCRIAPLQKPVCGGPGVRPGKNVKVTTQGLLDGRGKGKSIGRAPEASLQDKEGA

[6] = molecular target: T2, C-C chemokine receptor type 3 (Homo sapiens, UniProt P51677); assay: Inhibition of CCR3 receptor
T2 sequence (P51677 whole entry): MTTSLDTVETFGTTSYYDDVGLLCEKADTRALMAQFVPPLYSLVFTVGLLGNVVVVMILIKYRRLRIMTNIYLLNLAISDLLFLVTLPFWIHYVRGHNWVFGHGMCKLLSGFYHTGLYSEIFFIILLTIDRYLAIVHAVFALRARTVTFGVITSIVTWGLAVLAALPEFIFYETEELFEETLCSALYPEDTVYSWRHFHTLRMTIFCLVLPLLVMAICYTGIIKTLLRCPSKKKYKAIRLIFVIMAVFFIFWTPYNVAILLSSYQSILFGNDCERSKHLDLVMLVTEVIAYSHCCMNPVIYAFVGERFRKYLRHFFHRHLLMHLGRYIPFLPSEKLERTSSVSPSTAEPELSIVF

[7] = molecular target: T3, C-C chemokine receptor type 4 (Homo sapiens, UniProt P51679); assay: Inhibition of CCR4 receptor
T3 sequence (P51679 whole entry): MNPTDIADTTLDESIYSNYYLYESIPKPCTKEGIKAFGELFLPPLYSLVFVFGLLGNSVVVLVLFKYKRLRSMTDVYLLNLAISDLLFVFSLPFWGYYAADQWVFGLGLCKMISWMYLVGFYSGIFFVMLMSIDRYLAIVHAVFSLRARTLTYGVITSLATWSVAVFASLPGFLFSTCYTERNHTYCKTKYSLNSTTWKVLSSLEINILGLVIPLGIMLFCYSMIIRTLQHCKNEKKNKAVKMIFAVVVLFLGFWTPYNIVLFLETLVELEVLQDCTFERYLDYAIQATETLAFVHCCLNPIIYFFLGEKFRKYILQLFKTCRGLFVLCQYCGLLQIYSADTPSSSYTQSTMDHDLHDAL

[8] = molecular target: T4, C-C chemokine receptor type 6 (Homo sapiens, UniProt P51684); assay: Inhibition of CCR6 receptor
T4 sequence (P51684 whole entry): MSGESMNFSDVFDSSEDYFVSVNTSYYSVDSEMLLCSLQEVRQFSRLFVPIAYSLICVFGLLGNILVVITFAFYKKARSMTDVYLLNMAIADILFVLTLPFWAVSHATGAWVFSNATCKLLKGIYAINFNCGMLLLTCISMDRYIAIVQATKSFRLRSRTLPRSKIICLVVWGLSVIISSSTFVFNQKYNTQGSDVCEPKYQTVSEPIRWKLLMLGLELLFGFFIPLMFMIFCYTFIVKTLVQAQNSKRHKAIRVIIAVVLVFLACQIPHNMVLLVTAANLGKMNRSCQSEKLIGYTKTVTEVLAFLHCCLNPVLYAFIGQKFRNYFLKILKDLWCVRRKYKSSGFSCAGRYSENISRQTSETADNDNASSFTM

[9] = molecular target: C-X-C chemokine receptor type 4 (Homo sapiens, UniProt P61073); assay: Inhibition of CXCR4 receptor
Chain of C-X-C chemokine receptor type 4 (P61073 whole entry): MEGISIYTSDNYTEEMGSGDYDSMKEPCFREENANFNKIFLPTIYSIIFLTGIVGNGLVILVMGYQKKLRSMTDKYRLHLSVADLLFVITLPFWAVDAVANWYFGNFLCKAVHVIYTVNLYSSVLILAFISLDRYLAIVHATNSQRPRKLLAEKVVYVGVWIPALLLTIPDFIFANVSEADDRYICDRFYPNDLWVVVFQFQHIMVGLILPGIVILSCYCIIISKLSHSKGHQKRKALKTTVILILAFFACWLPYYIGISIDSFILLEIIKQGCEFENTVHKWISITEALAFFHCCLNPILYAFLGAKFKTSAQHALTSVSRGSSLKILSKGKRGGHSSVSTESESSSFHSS

hERG (KCNH2) = hERG (KCNH2) (Homo sapiens, UniProt Q12809); assay: Inhibition of human ERG receptor
Chain of hERG (KCNH2) (Q12809 whole entry): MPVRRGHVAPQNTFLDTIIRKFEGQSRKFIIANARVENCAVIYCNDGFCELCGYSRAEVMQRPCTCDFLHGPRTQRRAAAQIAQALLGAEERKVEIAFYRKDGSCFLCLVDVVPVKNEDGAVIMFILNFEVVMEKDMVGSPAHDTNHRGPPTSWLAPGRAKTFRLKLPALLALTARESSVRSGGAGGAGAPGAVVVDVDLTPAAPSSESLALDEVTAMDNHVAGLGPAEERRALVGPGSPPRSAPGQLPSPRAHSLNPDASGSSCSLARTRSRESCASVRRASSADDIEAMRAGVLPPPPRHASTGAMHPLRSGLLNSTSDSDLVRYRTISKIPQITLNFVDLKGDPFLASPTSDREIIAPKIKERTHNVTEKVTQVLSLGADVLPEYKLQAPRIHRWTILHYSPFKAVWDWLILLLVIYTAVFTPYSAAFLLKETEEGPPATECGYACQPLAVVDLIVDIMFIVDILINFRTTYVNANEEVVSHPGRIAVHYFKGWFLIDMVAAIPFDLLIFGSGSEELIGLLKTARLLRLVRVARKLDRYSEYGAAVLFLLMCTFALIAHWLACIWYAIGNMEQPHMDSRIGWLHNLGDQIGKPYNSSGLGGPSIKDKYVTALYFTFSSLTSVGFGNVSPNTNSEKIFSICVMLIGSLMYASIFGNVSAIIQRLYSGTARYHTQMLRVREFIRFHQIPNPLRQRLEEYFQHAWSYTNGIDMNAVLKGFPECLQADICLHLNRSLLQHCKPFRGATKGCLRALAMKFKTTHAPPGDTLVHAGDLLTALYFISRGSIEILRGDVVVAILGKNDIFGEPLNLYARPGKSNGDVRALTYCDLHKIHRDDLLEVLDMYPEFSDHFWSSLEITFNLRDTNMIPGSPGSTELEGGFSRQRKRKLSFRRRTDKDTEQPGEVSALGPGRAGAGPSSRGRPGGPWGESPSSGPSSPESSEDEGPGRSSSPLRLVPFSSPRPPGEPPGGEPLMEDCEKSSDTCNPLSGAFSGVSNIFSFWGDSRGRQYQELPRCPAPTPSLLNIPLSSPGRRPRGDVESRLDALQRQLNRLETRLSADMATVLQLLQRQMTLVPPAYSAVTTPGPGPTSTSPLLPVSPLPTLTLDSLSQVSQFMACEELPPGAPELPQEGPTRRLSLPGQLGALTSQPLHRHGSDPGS

Rattus norvegicus [10] = assay: Tmax in rat at 2 mg/kg, po; format: ADME, organism-based; design: dose 2 mg/kg, route oral; conditions: in vivo
Rattus norvegicus [11] = assay: Cmax in rat at 2 mg/kg, po; format: ADME, organism-based; design: dose 2 mg/kg, route oral; conditions: in vivo
[12] = Half life in rat at 0.5 mg/kg, iv; format: ADME, organism-based; design: dose 0.5 mg/kg, route intravenous; conditions: in vivo
Rattus norvegicus [13] = assay: Half life in rat at 2 mg/kg, po; format: ADME, organism-based; design: dose 2 mg/kg, route oral; conditions: in vivo
[14] = Mean retention time in rat at 0.5 mg/kg, iv; format: ADME, organism-based; design: dose 0.5 mg/kg, route intravenous; conditions: in vivo
[15] = Mean retention time in rat at 2 mg/kg, po; format: ADME, organism-based; design: dose 2 mg/kg, route oral; conditions: in vivo
[16] = AUC in rat at 0.5 mg/kg, iv; format: ADME, organism-based; design: dose 0.5 mg/kg, route intravenous; conditions: plasma
Rattus norvegicus [17] = assay: AUC in rat at 2 mg/kg, po; format: ADME, organism-based, Plasma; design: dose 2 mg/kg, route oral; conditions: in vivo
[18] = Clearance in rat at 0.5 mg/kg, iv; format: ADME, organism-based; design: dose 0.5 mg/kg, route intravenous; conditions: in vivo
[19] = Volume of distribution at steady state in rat at 0.5 mg/kg, iv; format: ADME, organism-based; design: dose 0.5 mg/kg, route intravenous; conditions: in vivo, read-out: Vdss
[20] = Oral bioavailability in rat at 2 mg/kg; format: ADME, organism-based; conditions: in vivo
[21] = tested on: Human immunodeficiency virus 1; assay: Inhibition of R5 tropic HIV1 BaL replication in human PBMC; format: functional, organism-based; conditions: Human immunodeficiency virus 1, BaL

Chain of C-C chemokine receptor type 5 (P51681 whole entry, the tested form may be a part): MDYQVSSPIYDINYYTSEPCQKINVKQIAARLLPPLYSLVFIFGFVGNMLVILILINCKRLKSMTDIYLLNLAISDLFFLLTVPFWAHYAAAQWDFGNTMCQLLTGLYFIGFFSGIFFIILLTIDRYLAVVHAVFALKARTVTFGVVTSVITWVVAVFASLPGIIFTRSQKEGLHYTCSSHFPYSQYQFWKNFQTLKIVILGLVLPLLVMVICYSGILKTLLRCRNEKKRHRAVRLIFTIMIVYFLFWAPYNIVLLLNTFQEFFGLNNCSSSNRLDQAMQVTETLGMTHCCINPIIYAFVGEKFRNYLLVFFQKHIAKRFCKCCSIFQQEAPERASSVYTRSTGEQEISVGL

SMILES | IC50 [1] [nM] | IC50 [2] [nM] | microsomal CLint [3] [µL/min/mg] | further results
CCCCC1C(=O)N(C[C@H]2CC[C@H](O)CC2)CCC12CCN(C1(C)CCN(C(=O)c3c(C)cc(C#N)nc3C)CC1)CC2 (some centres not stated) | 31 | < 2.5 |  | 
CCCCC1C(=O)N(C[C@H]2CC[C@H](O)CC2)CCC12CCN(C1(C)CCN(C(=O)c3c(C)ncnc3C)CC1)CC2 (some centres not stated) | 76 | 10 |  | 
CCCCC1C(=O)N(CC2CCN(CC(F)F)CC2)CCC12CCN(C1(C)CCN(C(=O)c3c(C)ncnc3C)CC1)CC2 (configuration not stated) | 70 | 26 |  | 
CCCCC1C(=O)N(C[C@H]2CC[C@H](OCC)CC2)CCC12CCN(C1(C)CCN(C(=O)c3c(C)ncnc3C)CC1)CC2 (some centres not stated) | 30 | 5 |  | IC50 [4]: > 50 µM; IC50 [5]: > 50 µM; IC50 [6]: > 50 µM; IC50 [7]: > 50 µM; IC50 [8]: > 50 µM; IC50 [9]: > 50 µM; IC20 (hERG (KCNH2)): 3000 nM; Tmax (Rattus norvegicus [10]): 1 h; Cmax (Rattus norvegicus [11]): 2.03 ng/mL; half-life [12]: 228 min; t1/2 (Rattus norvegicus [13]): 4.19 h; MRT [14]: 2.65 h; MRT [15]: 4.33 h; AUC [16]: 334 ng·h/mL; AUC (Rattus norvegicus [17]): 910 ng·h/mL; clearance [18]: 24.1 mL/min/kg; Vd [19]: 4.71 L/kg; bioavailability [20]: 66%; IC50 [21]: 1.4 nM; IC90 [21]: 7.5 nM
CCCCC1C(=O)N(Cc2ccc(F)cc2)CCC12CCN(C1(C)CCN(C(=O)c3c(C)ncnc3C)CC1)CC2 (configuration not stated) | 19 | 100 |  | 
CCCCC1CN(S(=O)(=O)C2CCOCC2)CCC12CCN(C1(C)CCN(C(=O)c3c(C)ncnc3C)CC1)CC2 (configuration not stated) | 22 | 6 | 280 | 
CCCCC1C(=O)N(CC2CCOCC2)CCC12CCN(C1(C)CCN(C(=O)c3c(C)ncnc3C)CC1)CC2 (configuration not stated) | 30 | 4 |  | 
CCCOC1CN(S(=O)(=O)C2CC2)CCC12CCN(C1(C)CCN(C(=O)c3c(C)ncnc3C)CC1)CC2 (configuration not stated) | 80 | 400 |  | 
Cc1ncnc(C)c1C(=O)N1CCC(C)(N2CCC3(CC2)CCN(S(C)(=O)=O)CC3c2ccccc2)CC1 (configuration not stated) | 104 | 1900 |  | 
CCCCC1C(=O)N(CC2CCN(C(=O)OC)CC2)CCC12CCN(C1(C)CCN(C(=O)c3c(C)ncnc3C)CC1)CC2 (configuration not stated) | 60 | 8 |  | 
CCCCC1C(=O)N(C[C@H]2CC[C@H](OC)CC2)CCC12CCN(C1(C)CCN(C(=O)c3c(C)ncnc3C)CC1)CC2 (some centres not stated) | 37 | 6 |  | 
CCCCC1CN(S(=O)(=O)N2CCOCC2)CCC12CCN(C1(C)CCN(C(=O)c3c(C)ncnc3C)CC1)CC2 (configuration not stated) | 11 | 1 | 276 | 
CCCC[C@H]1C(=O)N(C[C@H]2CC[C@H](OCC)CC2)CCC12CCN(C1(C)CCN(C(=O)c3c(C)ncnc3C)CC1)CC2 |  |  |  | IC50 [21]: 0.8 nM; IC90 [21]: 4 nM
CCCCC1CN(C(=O)C2CCOCC2)CCC12CCN(C1(C)CCN(C(=O)c3c(C)cc(C#N)nc3C)CC1)CC2 (configuration not stated) | 217 | 170 |  | 
CCCCC1CN(S(=O)(=O)C2CCN(C=O)CC2)CCC12CCN(C1(C)CCN(C(=O)c3c(C)ncnc3C)CC1)CC2 (configuration not stated) | 64 | 14 | 60 | 
CCCC[C@@H]1C(=O)N(C[C@H]2CC[C@H](OCC)CC2)CCC12CCN(C1(C)CCN(C(=O)c3c(C)ncnc3C)CC1)CC2 |  |  |  | IC50 [21]: 0.5 nM; IC90 [21]: 3 nM

The next lines start with results.

IC50 [1] [nM] | IC50 [2] [nM] | microsomal CLint [3] [µL/min/mg] | SMILES | further results
18 | 4 | 310 | CCCCC1CN(S(=O)(=O)c2ccccn2)CCC12CCN(C1(C)CCN(C(=O)c3c(C)ncnc3C)CC1)CC2 (configuration not stated) | 
19 | < 1 | 773 | CCCCC1CN(S(=O)(=O)c2ccccc2)CCC12CCN(C1(C)CCN(C(=O)c3c(C)ncnc3C)CC1)CC2 (configuration not stated) | 
27 | 7 | 96 | CCCCC1CN(S(=O)(=O)c2cn(C)cn2)CCC12CCN(C1(C)CCN(C(=O)c3c(C)ncnc3C)CC1)CC2 (configuration not stated) | 
78 | 10 | 70 | CCCCC1CN(S(=O)(=O)C2CCN(C(C)=O)CC2)CCC12CCN(C1(C)CCN(C(=O)c3c(C)ncnc3C)CC1)CC2 (configuration not stated) | 
19 | 3 | 53 | CCCC[C@H]1CN(S(=O)(=O)CC(F)(F)F)CCC12CCN(C1(C)CCN(C(=O)c3c(C)ncnc3C)CC1)CC2 | 
> 500 | > 5000 |  | CCCCC1CN(CC2CCOCC2)CCC12CCN(C1(C)CCN(C(=O)c3c(C)ncnc3C)CC1)CC2 (configuration not stated) | 
25 | 100 | 7 | CCCCC1CN(S(C)(=O)=O)CCC12CCN(C1(C)CCN(C(=O)c3c(C)ncnc3C)CC1)CC2 (configuration not stated) | 
22 | 7 | 100 | CCCCC1CN(S(=O)(=O)C2CC2)CCC12CCN(C1(C)CCN(C(=O)c3c(C)ncnc3C)CC1)CC2 (configuration not stated) | 
349 | > 5000 |  | CCCCC1CN(C(=O)OC2CCOCC2)CCC12CCN(C1(C)CCN(C(=O)c3c(C)ncnc3C)CC1)CC2 (configuration not stated) | 
> 500 | > 5000 |  | CCCCC1CN(C(=O)C2CCOCC2)CCC12CCN(C1(C)CCN(C(=O)c3c(C)ncnc3C)CC1)CC2 (configuration not stated) | 
35 | 4 |  | CCCC[C@H]1CN(C(=O)NC)CCC12CCN(C1(C)CCN(C(=O)c3c(C)ncnc3C)CC1)CC2 | 
60 | 7 | 207 | CCCCC1CN(S(=O)(=O)N(C)C)CCC12CCN(C1(C)CCN(C(=O)c3c(C)ncnc3C)CC1)CC2 (configuration not stated) | 
